“Also recorded” adds a separate entry of the source. Like-named read-outs stand apart in the source and are kept apart here.
Legend:
[1] = test system: MCF-7/Adr cells; test: Sensitisation of MCF-7/Adr cells against doxorubicin (preliminary study); type: cell-based, human; conditions: unpublished preliminary study
[2] = target: P-gp (Homo sapiens, UniProt P08183); test: Inhibition of binding of [3H]vinblastine to P-gp in MCF-7/Adr membranes
Text: (§1) In the present study these five compounds are compared as modifiers of P-gp-mediated MDR. […] The overall objective of the work was to explore the mechanisms of cytostasis and resistance reversal caused by kinase inhibitors in a MDR cell line, with the ultimate aim to assess the potential use of such compounds in cancer therapy. […] [3H]Vinblastine (11 or 21 Ci mmol -') was obtained from Amersham (Amersham, UK). […] Cell culture medium and serum were purchased from Gibco BRL (Paisley, UK). Stock solutions of drugs were prepared in dimethyl sulphoxide (DMSO) and stored at -20?C. […] Cultures of both cell types contained L-glutamine (2 mM), penicillin (100 IU ml-') and streptomy- cin (100 ug ml-1). Cells were subcultured when they were confluent. […] After a 4 h attachment period compounds at various concentrations were added. […] Cells were trypsinised and counted using a model ZM Coulter counter. Incubations were conducted in duplicate. Growth inhibition was expressed as percentage of cell number in drug-free control incubates. […] IC50 values were derived from three separate experiments each performed in duplicate. The resistance ratios shown in Table I are the ratios of IC50 in MCF-7/Adr over IC50 in MCF-7, or IC50 in MCF-7/Adr in the absence of reserpine over IC50 in its presence. Flow cytometric analysis of R123 accumulation and efflux Cells were maintained in medium without phenol red but with FCS (10%) and gentamicin (50 µg ml-'). […] Cells were detached by treatment with trypsin-EDTA, washed with ice-cold PBS and resuspended in PBS (1 ml), to which propidium iodide (10 Mg) was added. […] Single- and multi-parameter data of forward angle scatter, side scatter, R123 fluorescence and propidium iodide fluorescence were collected for 104 cells. Fluorescence was measured on a four-decade log scale. The data were analysed using Lysis 2 software. Only R123 fluorescence of viable, propidium iodide-excluding cells was analysed. [/II] Vinblastine accumndation ini cells MCF-7 and MCF-7jAdr cells were grown to confluency in 12-well plates. […] The experiment was started by addition of [3H]vinblastine (1 -2 nM) to the incubate. […] Cells were incubated at 37'C for I h, after which the medium was aspirated and replaced with scintillant (1 ml). […] For each membrane preparation 109 cells were homogenised in 40 ml ice-cold Tris buffer [Tris-HC1 50 mM, phenylmethylsulphonyl fluoride (PMSF) 0.1 mM, pH 7.4] to which 0.1 mM EDTA had been added. The homogenate was centrifuged at 3500 g for 10 min; the supernatant was recentrifuged at 40 000 g for 20 min, the resultant pellet was resuspended in Tris buffer (10 ml). […] Filters were washed twice with 5 ml of ice-cold Tris-HCI containing magnesium chloride (both 20 mM). Assays were performed in duplicate. Filters were dried and retained radioactivity was quantitated by liquid scintillation counting.

[3] = test system: MCF-7/Adr cells; test: Flow cytometric analysis of R123 accumulation and efflux; type: cell-based, human; conditions: for Increase over control levels in R123 accumulation: 20 min together with R123; for Effect on R123 accumulation or efflux: 640 nM; on Effect on R123 efflux (Table III summary): key: +: potent effect; (+): weak effect; -: no effect
Text: as §1

[4] = test system: MCF-7/Adr cells; test: [3H]Vinblastine accumulation in MCF-7/Adr cells; type: cell-based, human; conditions: 300 nM, 1 h, 37 C; control cells 1280 d.p.m.
Text: as §1, with “were” for “were washed twice with 5 ml of ice-cold Tris-HCI containing magnesium chloride (both 20 mM). Assays were performed in duplicate. Filters were”

[5] = test system: MCF-7 cells; test: Inhibition of growth of MCF-7 wild-type cells (4 days, Coulter count); type: cell-based, human; conditions: for IC50: 4 days incubation, mean of three experiments, read-out: IC50 MCF-7 (concentration which caused inhibition of cell growth by 50%)
Text: as §1, with “were” for “were washed twice with 5 ml of ice-cold Tris-HCI containing magnesium chloride (both 20 mM). Assays were performed in duplicate. Filters were”

[6] = test system: PKC; conditions: cited from earlier work; for PKC inhibition, potency (Table III summary) / IC50: ref Courage et al., 1995; for IC50: read-out: IC50 for enzyme inhibition, PKC derived from the cytosol of MCF-7 cells; on PKC inhibition, potency (Table III summary): key: +: potent effect; (+): weak effect; -: no effect; on PKC inhibition, specificity (Table III summary): key: +: potent effect; (+): weak effect; -: no effect
[7] = test system: MCF-7/Adr cells; test: Inhibition of growth of multidrug-resistant MCF-7/Adr cells, without or with reserpine; type: cell-based, human; conditions: for IC50: 4 days incubation, without reserpine; for Ratio (-reserpine / +reserpine): IC50 in MCF-7/Adr in the absence of reserpine over IC50 in its presence; for Ratio (MCF-7/Adr / MCF-7), resistance ratio: IC50 in MCF-7/Adr over IC50 in MCF-7; on MDR reversal by reserpine (Table III summary): key: +: potent effect; (+): weak effect; -: no effect
[8] = read-out: Ki, inhibition of binding of [3H]vinblastine to P-gp, MCF-7/Adr membranes, 90 min, 23 C, mean, s.e.m.
[9] = Homo sapiens, NCI/ADR-RES, 96 h

P-gp, sequence (P08183 whole entry): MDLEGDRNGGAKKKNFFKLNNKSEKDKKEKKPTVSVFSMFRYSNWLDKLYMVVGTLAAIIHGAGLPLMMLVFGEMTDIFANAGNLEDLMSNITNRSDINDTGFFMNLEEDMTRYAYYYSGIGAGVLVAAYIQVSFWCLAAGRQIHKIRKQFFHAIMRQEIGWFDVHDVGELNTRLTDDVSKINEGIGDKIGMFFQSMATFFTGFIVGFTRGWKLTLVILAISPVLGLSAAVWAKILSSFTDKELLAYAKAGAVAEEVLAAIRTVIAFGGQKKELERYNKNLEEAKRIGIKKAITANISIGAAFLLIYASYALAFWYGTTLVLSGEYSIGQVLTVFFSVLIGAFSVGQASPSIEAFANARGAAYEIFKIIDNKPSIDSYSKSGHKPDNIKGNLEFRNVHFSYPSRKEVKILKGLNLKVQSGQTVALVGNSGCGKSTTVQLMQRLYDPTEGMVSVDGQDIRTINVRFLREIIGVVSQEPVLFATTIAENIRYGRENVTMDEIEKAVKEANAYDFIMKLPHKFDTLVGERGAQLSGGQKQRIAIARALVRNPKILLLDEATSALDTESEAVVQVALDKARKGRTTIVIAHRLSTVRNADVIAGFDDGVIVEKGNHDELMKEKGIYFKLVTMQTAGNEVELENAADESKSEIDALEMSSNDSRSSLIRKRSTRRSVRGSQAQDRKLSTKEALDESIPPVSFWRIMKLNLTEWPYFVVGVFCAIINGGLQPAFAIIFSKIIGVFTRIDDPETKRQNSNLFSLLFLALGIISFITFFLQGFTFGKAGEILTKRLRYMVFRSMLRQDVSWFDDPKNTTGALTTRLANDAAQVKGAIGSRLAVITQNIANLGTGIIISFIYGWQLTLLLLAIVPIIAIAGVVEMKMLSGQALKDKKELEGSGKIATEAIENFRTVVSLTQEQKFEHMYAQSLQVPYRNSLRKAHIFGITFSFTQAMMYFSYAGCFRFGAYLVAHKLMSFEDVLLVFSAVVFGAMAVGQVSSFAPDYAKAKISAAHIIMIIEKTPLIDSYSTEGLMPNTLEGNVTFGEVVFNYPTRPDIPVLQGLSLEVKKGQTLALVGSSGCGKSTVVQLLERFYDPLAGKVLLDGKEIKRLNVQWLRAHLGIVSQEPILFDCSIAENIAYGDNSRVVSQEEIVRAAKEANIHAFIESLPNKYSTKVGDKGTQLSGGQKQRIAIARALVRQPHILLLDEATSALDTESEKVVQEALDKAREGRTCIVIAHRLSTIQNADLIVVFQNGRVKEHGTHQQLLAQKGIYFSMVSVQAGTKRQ

| Compound | Inhibition of [3H]vinblastine binding (Table III summary) [2] | Effect on R123 efflux (Table III summary) [3] | [3H]Vinblastine accumulation [4] | IC50 [5] [nM] | Ki [2, 8] [nM] | PKC inhibition, specificity (Table III summary) [6] | PKC inhibition, potency (Table III summary) [6] | IC50 [7] [nM] | Ratio (-reserpine / +reserpine) [7] | Ratio (MCF-7/Adr / MCF-7), resistance ratio [7] | other results |
| --- | --- | --- | --- | --- | --- | --- | --- | --- | --- | --- | --- |
| CO[C@@H]1[C@H](N(C)C(=O)c2ccccc2)C[C@H]2O[C@]1(C)n1c3ccccc3c3c4c(c5c6ccccc6n2c5c31)C(=O)NC4 [CGP 41251, 4'-N-benzoyl staurosporine] | + | + | 3200 d.p.m. |  |  |  |  |  |  |  | Increase of sensitivity of cells towards doxorubicin (factor) ([1]; 80 nM): 2; Ki [2]: 32 nM; Increase over control levels in R123 retention (efflux) ([3]; 80 nM, 20 min after loading with and removal of the dye): 150%; Increase over control levels in R123 accumulation ([3]; 80 nM): 47% |
| CN(C)CCCn1cc(C2=C(c3c[nH]c4ccccc34)C(=O)NC2=O)c2ccccc21 [GF 109203X] |  |  | 1790 d.p.m. | 7300 | 780 | + | + | 8800 | 1.5 | 1.2 | Effect on R123 accumulation or efflux [3]: inactive; also recorded: did not alter |
| Cn1cc(C2=C(c3cn(CCCSC(=N)N)c4ccccc34)C(=O)NC2=O)c2ccccc21 [RO 31 8220] | (+) |  | no effect | 897 | 210 | + | + | 11300 | 6.4 | 12.6 | Effect of reserpine on sensitivity of wild-type MCF-7 cells ([5]; result not shown): did not affect; Effect on sensitivity of cells towards doxorubicin ([1]; 2 μM): no effect; IC50 [6]: 48 nM; Effect on R123 accumulation or efflux [3]: inactive; also recorded: did not alter; MDR reversal by reserpine (Table III summary) [7]: +; Resistance in MCF-7/Adr cells (Table III summary) [7]: + |
| CN[C@@H]1C[C@H]2O[C@@](C)([C@@H]1OC)n1c3ccccc3c3c4c(c5c6ccccc6n2c5c31)C(=O)N[C@H]4O [UCN-01, 7-hydroxystaurosporine] | (+) | (+) | 2110 d.p.m. | 17.5 | 293 | + | + | 123 | 3.5 | 7.0 | Concentration with significant effect on R123 accumulation ([3]; tested 10-640 nM): 80 nM; Concentration with significant effect on dye efflux ([3]; tested 10-640 nM): 320 nM; MDR reversal by reserpine (Table III summary) [7]: +; Resistance in MCF-7/Adr cells (Table III summary) [7]: + |
| COc1cccc2c1C(=O)c1c(O)c3c(c(O)c1C2=O)C[C@@](O)(C(=O)CO)C[C@@H]3O[C@H]1C[C@H](N)[C@H](O)[C@H](C)O1 [doxorubicin] |  |  |  |  |  |  |  |  | 16 |  | IC50 [7, 9]: 1600 nM |
| COC(=O)[C@H]1[C@H]2C[C@@H]3c4[nH]c5cc(OC)ccc5c4CCN3C[C@H]2C[C@@H](OC(=O)c2cc(OC)c(OC)c(OC)c2)[C@@H]1OC [reserpine] |  |  |  |  |  |  |  |  |  |  | Effect on proliferation ([7]; reserpine 5 μM): did not interfere with proliferation; Increase of sensitivity towards doxorubicin ([7]; reserpine 5 μM, preliminary experiments): 14.3 fold |
| CN[C@@H]1C[C@H]2O[C@@](C)([C@@H]1OC)n1c3ccccc3c3c4c(c5c6ccccc6n2c5c31)C(=O)NC4 [staurosporine] | (+) | + |  |  |  |  |  |  |  |  | Ki [2]: 145 nM; IC50 [6]: 16 nM; Increase over control levels in R123 accumulation ([3]; 80 nM): 40%; Increase over control levels in R123 retention (efflux) ([3]; 20 min, 0.08 µM): 75%; IC50 [7, 9]: 6.5 nM |
